Structures are written as SMILES.

T1 sequence (Q9NZQ7 19-238): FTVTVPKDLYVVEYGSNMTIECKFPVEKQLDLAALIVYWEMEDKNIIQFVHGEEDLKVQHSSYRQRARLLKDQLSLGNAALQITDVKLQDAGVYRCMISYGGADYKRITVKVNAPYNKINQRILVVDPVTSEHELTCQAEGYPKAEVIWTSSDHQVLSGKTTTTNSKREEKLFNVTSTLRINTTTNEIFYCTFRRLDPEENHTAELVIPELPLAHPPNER

This experiment concerns the target T1, PD-1/PD-L1 (Homo sapiens, UniProt Q9NZQ7).
T1 construct: Recombinant human PD-L1 protein (19-238) with a His-tagged at the C-terminus; purchased AcroBiosystems PD1-H5229 (PD-L1); PD1-H5257 (PD-1)
Put plainly: PD-1/PD-L1 homogeneous time-resolved fluorescence (HTRF) binding assay. As to conditions: PD-1/PD-L1 HTRF binding, ~3 nM PD1, 10 nM PD-L1, 25° C., PBS pH 7.4. The method, then:
Assays were performed in standard black 384-well polystyrene plates and a final volume was 20 μL. The inhibitor was first serially diluted with DMSO and added to the wells of the plate, followed by the addition of other reaction components. The final concentration of DMSO in the assay was 1%. Assays were performed at 25° C. in PBS buffer (pH 7.4) containing 0.05% Tween-20 and 0.1% BSA. Recombinant human PD-L1 protein (19-238) with a His-tagged at the C-terminus was purchased from AcroBiosystems (PD1-H5229). Recombinant human PD-1 protein (25-167) with an Fc tag at the C-terminus was also purchased from AcroBiosystems (PD1-H5257). The PD-L1 and PD-1 proteins were diluted in assay buffer and then […] of the solution was extracted and added to the wells of the plate. Plates were centrifuged and proteins and inhibitors were preincubated for 40 minutes. After incubation, 0.1 μl of HTRF detection buffer containing europium […] labeled anti-human IgG (PerkinElmer-AD0212), Fc-specific and anti-His SureLight®-Allophycocyanin (APC, PerkinElmer-AD0059H) conjugated antibodies was added. After centrifugation, the plates were incubated at 25° C. for 60 minutes. Data was read in a PHERAstar FS plate reader (665 nm/620 nm ratio). Final concentrations in the assay were ˜3 nM PD1, 10 nM PD-L1, 1 nM europium anti-human IgG, and 20 nM anti-His-allophycocyanin. Activity data were fitted using GraphPad Prism 5_0 software to derive IC50 values for inhibitors.
The compound `COc1nc(-c2cccc(-c3cccc(-c4nc5cc6c(c(C#N)c5o4)CC[C@H]6N4CC[C@@H](C(=O)NS(=O)(=O)C5(C)CC5)C4)c3C)c2C)cnc1CN1CC[C@@H](O)C1` [Compound 084] yielded an IC50 of at most 0.01 µM.
In the case of `COc1nc(-c2cccc(-c3cccc(-c4nc5cc6c(c(C#N)c5o4)CC[C@H]6N4CC[C@@H](C(=O)NS(=O)(=O)C5(C)CC5)C4)c3Cl)c2Cl)cnc1CN1CC[C@@H](O)C1` [Compound 086] it was at most 0.01 µM.
Take `N#Cc1c2c(cc3nc(-c4cccc(-c5cccc(Nc6nc(C(F)F)nc7cc(CN8CC[C@@H](O)C8)cnc67)c5Cl)c4Cl)oc13)[C@H](N1CC[C@@H](C(=O)NS(=O)(=O)C3CC3)C1)CC2` [Compound 087]: the IC50 was at most 0.01 µM.
Then `CC1(S(=O)(=O)NC(=O)[C@@H]2CCN([C@@H]3CCc4c3cc3nc(-c5cccc(-c6cccc(Nc7nc(C(F)F)nc8cc(CN9CC[C@@H](O)C9)cnc78)c6Cl)c5Cl)oc3c4C#N)C2)CC1` [Compound 088], with at most 0.01 µM.
In the case of `COc1nc(-c2cccc(-c3cccc(-c4nc5cc6c(c(C#N)c5o4)CC[C@H]6N4CC[C@@H](C(=O)O)C4)c3Cl)c2Cl)cnc1CN1CC[C@@H](O)C1` [Compound 162] it was at most 0.01 µM; in that of `COc1nc(-c2cccc(-c3cccc(-c4nc5cc6c(c(C#N)c5o4)CC[C@H]6N4CC[C@@H](C(=O)O)C4)c3Cl)c2C)cnc1CN1CC[C@@H](O)C1` [Compound 175], at most 0.01 µM.
`COc1nc(-c2cccc(-c3cccc(-c4nc5cc6c(c(C#N)c5o4)CC[C@H]6N4CC[C@@H](C(=O)O)C4)c3C)c2Cl)cnc1CN1CC[C@@H](O)C1` [Compound 182] came in with an IC50 of at most 0.01 µM.
In the case of `COc1nc(-c2cccc(-c3cccc(-c4nc5cc6c(c(C#N)c5o4)CC[C@H]6N4CC[C@@H](C(=O)NS(=O)(=O)C5CC5)C4)c3Cl)c2C)cnc1CN1CC[C@@H](O)C1` [Compound 231], the IC50 is at most 0.01 µM.
The compound `COc1nc(-c2cccc(-c3cccc(-c4nc5cc6c(c(C#N)c5o4)CC[C@H]6N4CC[C@@H](C(=O)NS(=O)(=O)C5CC5)C4)c3C)c2Cl)cnc1CN1CC[C@@H](O)C1` [Compound 232] yielded an IC50 of at most 0.01 µM.
Regarding `COc1nc(-c2cccc(-c3cccc(-c4nc5cc6c(c(C#N)c5o4)CC[C@H]6N4CC[C@@H](C(=O)NS(=O)(=O)C5(C)CC5)C4)c3Cl)c2C)cnc1CN1CC[C@@H](O)C1` [Compound 233], the IC50 is at most 0.01 µM.
For the compound `COc1nc(-c2cccc(-c3cccc(-c4nc5cc6c(c(C#N)c5o4)CC[C@H]6N4CC[C@@H](C(=O)NS(=O)(=O)C5(C)CC5)C4)c3C)c2Cl)cnc1CN1CC[C@@H](O)C1` [Compound 234], the IC50 is at most 0.01 µM.
In the case of `Cc1c(-c2nc3cc4c(c(C#N)c3o2)CC[C@H]4N2CC[C@@H](C(=O)O)C2)cccc1-c1cccc(Nc2nccc3cc(CN4CC[C@@H](O)C4)cnc23)c1Cl` [Compound 235] it was at most 0.01 µM.
In turn, `N#Cc1c2c(cc3nc(-c4cccc(-c5cccc(Nc6nccc7cc(CN8CC[C@@H](O)C8)cnc67)c5Cl)c4Cl)oc13)[C@H](N1CC[C@@H](C(=O)NS(=O)(=O)C3CC3)C1)CC2` [Compound 236] had an IC50 of at most 0.01 µM.
The compound `Cc1c(Nc2nccc3cc(CN4CC[C@@H](O)C4)cnc23)cccc1-c1cccc(-c2nc3cc4c(c(C#N)c3o2)CC[C@H]4N2CC[C@@H](C(=O)NS(=O)(=O)C3CC3)C2)c1Cl` [Compound 237] displayed an IC50 of at most 0.01 µM.
Regarding `Cc1c(-c2nc3cc4c(c(C#N)c3o2)CC[C@H]4N2CC[C@@H](C(=O)NS(=O)(=O)C3CC3)C2)cccc1-c1cccc(Nc2nccc3cc(CN4CC[C@@H](O)C4)cnc23)c1Cl` [Compound 238], the IC50 was at most 0.01 µM.
In the case of `Cc1c(Nc2nccc3cc(CN4CC[C@@H](O)C4)cnc23)cccc1-c1cccc(-c2nc3cc4c(c(C#N)c3o2)CC[C@H]4N2CC[C@@H](C(=O)NS(=O)(=O)C3(C)CC3)C2)c1C` [Compound 239] it was at most 0.01 µM.
`CC1(S(=O)(=O)NC(=O)[C@@H]2CCN([C@@H]3CCc4c3cc3nc(-c5cccc(-c6cccc(Nc7nccc8cc(CN9CC[C@@H](O)C9)cnc78)c6Cl)c5Cl)oc3c4C#N)C2)CC1` [Compound 240]: the IC50 was at most 0.01 µM.
In the case of `Cc1c(Nc2nccc3cc(CN4CC[C@@H](O)C4)cnc23)cccc1-c1cccc(-c2nc3cc4c(c(C#N)c3o2)CC[C@H]4N2CC[C@@H](C(=O)NS(=O)(=O)C3(C)CC3)C2)c1Cl` [Compound 241] it was at most 0.01 µM; in that of `Cc1c(-c2nc3cc4c(c(C#N)c3o2)CC[C@H]4N2CC[C@@H](C(=O)NS(=O)(=O)C3(C)CC3)C2)cccc1-c1cccc(Nc2nccc3cc(CN4CC[C@@H](O)C4)cnc23)c1Cl` [Compound 242], at most 0.01 µM.
In the case of `Cc1c(Nc2nccc3cc(CN4CC[C@@H](O)C4)cnc23)cccc1-c1cccc(-c2cc3cc4c(c(C#N)c3o2)CC[C@@H]4N2CC[C@@H](C(=O)O)C2)c1C` [Compound 243] it was at most 0.01 µM; in that of `Cc1c(Nc2nccc3cc(CN4CC[C@@H](O)C4)cnc23)cccc1-c1cccc(-c2cc3cc4c(c(C#N)c3o2)CC[C@H]4N2CC[C@@H](C(=O)O)C2)c1C` [Compound 244], at most 0.01 µM.
Consider `N#Cc1c2c(cc3cc(-c4cccc(-c5cccc(Nc6nccc7cc(CN8CC[C@@H](O)C8)cnc67)c5Cl)c4Cl)oc13)[C@H](N1CC[C@@H](C(=O)O)C1)CC2` [Compound 245], for which the IC50 is at most 0.01 µM.
Compound `Cc1c(Nc2nccc3cc(CN4CC[C@@H](O)C4)cnc23)cccc1-c1cccc(-c2cc3cc4c(c(C#N)c3o2)CC[C@H]4N2CC[C@@H](C(=O)O)C2)c1Cl` [Compound 246] gave a half-maximal inhibitory concentration (IC50) of at most 0.01 µM.
In the case of `Cc1c(-c2cc3cc4c(c(C#N)c3o2)CC[C@H]4N2CC[C@@H](C(=O)O)C2)cccc1-c1cccc(Nc2nccc3cc(CN4CC[C@@H](O)C4)cnc23)c1Cl` [Compound 247] it was at most 0.01 µM; in that of `Cc1c(Nc2nccc3cc(CN4CC[C@@H](O)C4)cnc23)cccc1-c1cccc(-c2cc3cc4c(c(C#N)c3o2)CC[C@H]4N2CC[C@@H](C(=O)NS(=O)(=O)C3CC3)C2)c1C` [Compound 248], at most 0.01 µM; in that of `N#Cc1c2c(cc3cc(-c4cccc(-c5cccc(Nc6nccc7cc(CN8CC[C@@H](O)C8)cnc67)c5Cl)c4Cl)oc13)[C@H](N1CC[C@@H](C(=O)NS(=O)(=O)C3CC3)C1)CC2` [Compound 249], at most 0.01 µM.
For the compound `Cc1c(Nc2nccc3cc(CN4CC[C@@H](O)C4)cnc23)cccc1-c1cccc(-c2cc3cc4c(c(C#N)c3o2)CC[C@H]4N2CC[C@@H](C(=O)NS(=O)(=O)C3CC3)C2)c1Cl` [Compound 250], the half-inhibitory concentration (IC50) is at most 0.01 µM.
Regarding `Cc1c(-c2cc3cc4c(c(C#N)c3o2)CC[C@H]4N2CC[C@@H](C(=O)NS(=O)(=O)C3CC3)C2)cccc1-c1cccc(Nc2nccc3cc(CN4CC[C@@H](O)C4)cnc23)c1Cl` [Compound 251], the 50% inhibitory concentration (IC50) was at most 0.01 µM.
Take `Cc1c(Nc2nccc3cc(CN4CC[C@@H](O)C4)cnc23)cccc1-c1cccc(-c2cc3cc4c(c(C#N)c3o2)CC[C@H]4N2CC[C@@H](C(=O)NS(=O)(=O)C3(C)CC3)C2)c1C` [Compound 252]: the IC50 was at most 0.01 µM.
Consider `CC1(S(=O)(=O)NC(=O)[C@@H]2CCN([C@@H]3CCc4c3cc3cc(-c5cccc(-c6cccc(Nc7nccc8cc(CN9CC[C@@H](O)C9)cnc78)c6Cl)c5Cl)oc3c4C#N)C2)CC1` [Compound 253], for which the half-maximal inhibitory concentration (IC50) is at most 0.01 µM.
As to `COc1nc(-c2cccc(-c3cccc(-c4cc5cc6c(c(C#N)c5o4)CC[C@H]6N4CC[C@@H](C(=O)O)C4)c3C)c2C)cnc1CN1CC[C@@H](O)C1` [Compound 256], the IC50 was at most 0.01 µM.
In the case of `COc1nc(-c2cccc(-c3cccc(-c4cc5cc6c(c(C#N)c5o4)CC[C@H]6N4CC[C@@H](C(=O)O)C4)c3Cl)c2Cl)cnc1CN1CC[C@@H](O)C1` [Compound 257] it was at most 0.01 µM; in that of `COc1nc(-c2cccc(-c3cccc(-c4cc5cc6c(c(C#N)c5o4)CC[C@H]6N4CC[C@@H](C(=O)O)C4)c3Cl)c2C)cnc1CN1CC[C@@H](O)C1` [Compound 258], at most 0.01 µM; in that of `COc1nc(-c2cccc(-c3cccc(-c4cc5cc6c(c(C#N)c5o4)CC[C@H]6N4CC[C@@H](C(=O)O)C4)c3C)c2Cl)cnc1CN1CC[C@@H](O)C1` [Compound 259], at most 0.01 µM.
Turning to `COc1nc(-c2cccc(-c3cccc(-c4cc5cc6c(c(C#N)c5o4)CC[C@H]6N4CC[C@@H](C(=O)NS(=O)(=O)C5CC5)C4)c3C)c2C)cnc1CN1CC[C@@H](O)C1` [Compound 260], the concentration for half-maximal inhibition (IC50) was at most 0.01 µM.
Then `COc1nc(-c2cccc(-c3cccc(-c4cc5cc6c(c(C#N)c5o4)CC[C@H]6N4CC[C@@H](C(=O)NS(=O)(=O)C5CC5)C4)c3Cl)c2Cl)cnc1CN1CC[C@@H](O)C1` [Compound 261], with at most 0.01 µM; and `COc1nc(-c2cccc(-c3cccc(-c4cc5cc6c(c(C#N)c5o4)CC[C@H]6N4CC[C@@H](C(=O)NS(=O)(=O)C5CC5)C4)c3Cl)c2C)cnc1CN1CC[C@@H](O)C1` [Compound 262], with at most 0.01 µM.
In the case of `COc1nc(-c2cccc(-c3cccc(-c4cc5cc6c(c(C#N)c5o4)CC[C@H]6N4CC[C@@H](C(=O)NS(=O)(=O)C5CC5)C4)c3C)c2Cl)cnc1CN1CC[C@@H](O)C1` [Compound 263] it was at most 0.01 µM.

(Values after US20220372031A1, “NOVEL TRICYCLIC AROMATIC HETEROCYCLIC COMPOUND, PREPARATION METHOD THEREFOR, PHARMACEUTICAL COMPOSITION AND APPLICATION THEREOF” (SHANGHAI LONGWOOD BIOPHARMACEUTICALS CO., LTD., priority 2019, published 2022).)
